In article PMC11062899, “De novo development of small cyclic peptides that are orally bioavailable” (Nature Chemical Biology, 2023):

Target: human α-thrombin (Homo sapiens, UniProt P00734)
Test: Sub-library screen for active and permeable cyclic peptides (PAMPA plus thrombin inhibition)
Assay type: biochemical
Conditions: crude, slopes normalized to DMSO; for Residual thrombin activity: Top sample: PAMPA acceptor well after 14 h, 5 μM donor; for Residual thrombin activity: Equilibrated sample: donor sample diluted to theoretical equilibrium (1 μM in assay)
Method: Linear dithiol peptides were synthesized in fritted 5-ml polypropylene syringes on a MultiPep RSi parallel peptide synthesizer (Intavis) by standard Fmoc-based solid-phase peptide synthesis on cysteamine 2-chlorotrityl resin (Sigma-Aldrich, 8.56000, 1.63 mmol g^−1 loading, 25 μmol scale) as described above with small changes. Amino acids (65 μmol, 2.6 eq.) were activated with HATU (63 μmol, 2.5 eq.) and NMM (145 μmol, 5.8 eq.) in 280 μl of DMF and 5 μl of NMP and let to react with the resin (25 μmol, 1 eq.) for 45 min. Couplings were performed twice for each amino acid. Resin was washed once with 800 μl of DMF, and unreacted amines were capped with 5% acetic anhydride and 6% 2,6-lutidine in 400 μl of DMF for 5 min. The resin was washed six times with 600 μl of DMF, and Fmoc protecting groups were removed by incubating the resin twice with 450 μl of a 20% piperidine solution in DMF for 5 min. The resin was washed six times with 600 μl of DMF before proceeding to the next coupling cycle. After completing the last coupling cycle, the resin was washed six times with […] of DCM. Peptide cleavage and ether precipitation were carried out as described above. After quantification with Ellman’s reagent, 1 μmol of each peptide was transferred in seven replicates to new Nunc 96-well DeepWell polypropylene plates and lyophilized. Peptides were cyclized as described above to afford 20 mM cyclic peptide stock solutions in DMSO containing 160 mM HEPES sodium salt. The amine on cyclic peptides was acylated with 5-chlorothiophene-2-carboxylic acid as follows. A 160 mM solution in 5-chlorothiophene-2-carboxylic acid was prepared in DMSO containing 160 mM HEPES sodium salt, and the acid was activated by mixing in equal volumes with a 160 mM HSTU solution in DMSO. Then, 10 μl of the activated carboxylic acid solutions and the cyclic peptide stocks were placed in Echo Qualified 384-well Low Dead Volume microplates (Labcyte), and 400 nl of cyclic peptide and 400 nl of HSTU-activated 5-chlorothiophene-2-carboxylic acid were transferred combinatorially to 384-well microplates (Greiner, 781076) using the Echo 650 acoustic liquid handler (Labcyte). Plates were centrifuged at 2,000 g for 2 min, and the reaction was allowed to proceed at room temperature for 8 h before addition of 39.2 μl of DMSO with a CERTUS FLEX liquid dispenser (Gyger). A volume of 25 μl of the resulting DMSO solutions was diluted with PBS buffer at pH 7.4 containing 5% DMSO in Nunc 96-well DeepWell polypropylene plates to afford 5 μM solutions of the acylated peptides.
The PAMPA plates were covered with a lid to avoid evaporation and incubated for 14 h at room temperature. Additionally, a diluted donor sample was prepared at the concentration representing theoretical maximum permeability (3 μM). Thereby, 30 μl of the donor sample before incubation was diluted with 20 μl of PBS buffer at pH 7.4 containing 5% DMSO. Volumes of 16 μl of each acceptor well and the diluted donor samples were transferred to a 384-well microplate (Greiner, 781076), and thrombin activity was measured as follows. Human α-thrombin (16 μl, 6 nM, Molecular Innovations) in assay buffer was dispensed into each well using a CERTUS FLEX liquid dispenser (Gyger), and plates were incubated at room temperature for 10 min. Then, 16 μl of a 150 μM fluorogenic thrombin substrate solution (Z-Gly-Gly-Arg-AMC, Bachem) in assay buffer containing 1% DMSO was added to each well, and thrombin inhibition was determined by measuring the fluorescent gain over time. Fluorescence intensity was measured on a Tecan Infinite M200 Pro microplate reader for 30 min at 25 °C with a fluorescent readout every 3 min (excitation: 360 nm, emission: 465 nm). Protease inhibition was calculated by comparing the enzymatic activity to a control without cyclic peptide.

Compound	Residual thrombin activity: Top sample	Residual thrombin activity: Equilibrated sample
O=C1C[C@H]2CCCN2C(=O)[C@H](Cc2ccccc2)NC(=O)[C@@H](NC(=O)c2ccc(Cl)s2)CSCc2cccc(n2)CSCCN1 [C1-X5-L1]	77.6	68.5
O=C1C[C@H]2CCCN2C(=O)[C@H](Cc2ccccc2)NC(=O)[C@@H](NC(=O)c2ccc(Cl)s2)CSCCS(=O)(=O)CCSCCN1 [C1-X5-L2]	88.1	37.4
O=C1C[C@H]2CCCN2C(=O)[C@H](Cc2ccccc2)NC(=O)[C@@H](NC(=O)c2ccc(Cl)s2)CSCc2ccc(cc2)CSCCN1 [C1-X5-L3]	88.7	68.9
O=C1C[C@H]2CCCN2C(=O)[C@H](Cc2ccccc2)NC(=O)[C@@H](NC(=O)c2ccc(Cl)s2)CSC/C=C/CSCCN1 [C1-X5-L4]	53.7	31.7
O=C1C[C@H]2CCCN2C(=O)[C@H](Cc2ccccc2)NC(=O)[C@@H](NC(=O)c2ccc(Cl)s2)CSCc2cccc(c2)CSCCN1 [C1-X5-L5]	92.1	73.3
O=C1C[C@H]2CCCN2C(=O)[C@H](Cc2ccccc2)NC(=O)[C@@H](NC(=O)c2ccc(Cl)s2)CSCc2ccccc2CSCCN1 [C1-X5-L6]	82.2	60.8
O=C1CSCCNC(=O)C[C@H]2CCCN2C(=O)[C@H](Cc2ccccc2)NC(=O)[C@@H](NC(=O)c2ccc(Cl)s2)CSC1 [C1-X5-L7]	93.6	82.8
O=C1C[C@H]2CCCN2C(=O)[C@@H](Cc2ccccc2)NC(=O)[C@@H](NC(=O)c2ccc(Cl)s2)CSCc2cccc(n2)CSCCN1 [C1-X31-L1]	89.8	93.2
O=C1C[C@H]2CCCN2C(=O)[C@@H](Cc2ccccc2)NC(=O)[C@@H](NC(=O)c2ccc(Cl)s2)CSCCS(=O)(=O)CCSCCN1 [C1-X31-L2]	103.5	90.9
O=C1C[C@H]2CCCN2C(=O)[C@@H](Cc2ccccc2)NC(=O)[C@@H](NC(=O)c2ccc(Cl)s2)CSCc2ccc(cc2)CSCCN1 [C1-X31-L3]	95.4	95.0
O=C1C[C@H]2CCCN2C(=O)[C@@H](Cc2ccccc2)NC(=O)[C@@H](NC(=O)c2ccc(Cl)s2)CSC/C=C/CSCCN1 [C1-X31-L4]	96.8	93.6
O=C1C[C@H]2CCCN2C(=O)[C@@H](Cc2ccccc2)NC(=O)[C@@H](NC(=O)c2ccc(Cl)s2)CSCc2cccc(c2)CSCCN1 [C1-X31-L5]	100.5	95.5
O=C1C[C@H]2CCCN2C(=O)[C@@H](Cc2ccccc2)NC(=O)[C@@H](NC(=O)c2ccc(Cl)s2)CSCc2ccccc2CSCCN1 [C1-X31-L6]	88.4	91.2
O=C1CSCCNC(=O)C[C@H]2CCCN2C(=O)[C@@H](Cc2ccccc2)NC(=O)[C@@H](NC(=O)c2ccc(Cl)s2)CSC1 [C1-X31-L7]	96.8	96.3
CN1C(=O)[C@@H](NC(=O)c2ccc(Cl)s2)CSCc2cccc(n2)CSCCNC(=O)C[C@H]2CCCN2C(=O)[C@@H]1Cc1ccccc1 [C1-X32-L1]	87.6	99.6
CN1C(=O)[C@@H](NC(=O)c2ccc(Cl)s2)CSCCS(=O)(=O)CCSCCNC(=O)C[C@H]2CCCN2C(=O)[C@@H]1Cc1ccccc1 [C1-X32-L2]	96.4	95.3
CN1C(=O)[C@@H](NC(=O)c2ccc(Cl)s2)CSCc2ccc(cc2)CSCCNC(=O)C[C@H]2CCCN2C(=O)[C@@H]1Cc1ccccc1 [C1-X32-L3]	91.1	94.0
CN1C(=O)[C@@H](NC(=O)c2ccc(Cl)s2)CSC/C=C/CSCCNC(=O)C[C@H]2CCCN2C(=O)[C@@H]1Cc1ccccc1 [C1-X32-L4]	95.6	100.2
CN1C(=O)[C@@H](NC(=O)c2ccc(Cl)s2)CSCc2cccc(c2)CSCCNC(=O)C[C@H]2CCCN2C(=O)[C@@H]1Cc1ccccc1 [C1-X32-L5]	98.6	96.6
CN1C(=O)[C@@H](NC(=O)c2ccc(Cl)s2)CSCc2ccccc2CSCCNC(=O)C[C@H]2CCCN2C(=O)[C@@H]1Cc1ccccc1 [C1-X32-L6]	91.7	86.4
CN1C(=O)[C@@H](NC(=O)c2ccc(Cl)s2)CSCC(=O)CSCCNC(=O)C[C@H]2CCCN2C(=O)[C@@H]1Cc1ccccc1 [C1-X32-L7]	95.4	96.7
COc1ccc(C[C@@H]2NC(=O)[C@@H](NC(=O)c3ccc(Cl)s3)CSCc3cccc(n3)CSCCNC(=O)C[C@H]3CCCN3C2=O)cc1 [C1-X33-L1]	92.7	96.7
COc1ccc(C[C@@H]2NC(=O)[C@@H](NC(=O)c3ccc(Cl)s3)CSCCS(=O)(=O)CCSCCNC(=O)C[C@H]3CCCN3C2=O)cc1 [C1-X33-L2]	98.0	99.8
COc1ccc(C[C@@H]2NC(=O)[C@@H](NC(=O)c3ccc(Cl)s3)CSCc3ccc(cc3)CSCCNC(=O)C[C@H]3CCCN3C2=O)cc1 [C1-X33-L3]	96.4	98.9
COc1ccc(C[C@@H]2NC(=O)[C@@H](NC(=O)c3ccc(Cl)s3)CSC/C=C/CSCCNC(=O)C[C@H]3CCCN3C2=O)cc1 [C1-X33-L4]	95.0	98.0
COc1ccc(C[C@@H]2NC(=O)[C@@H](NC(=O)c3ccc(Cl)s3)CSCc3cccc(c3)CSCCNC(=O)C[C@H]3CCCN3C2=O)cc1 [C1-X33-L5]	99.7	99.3
COc1ccc(C[C@@H]2NC(=O)[C@@H](NC(=O)c3ccc(Cl)s3)CSCc3ccccc3CSCCNC(=O)C[C@H]3CCCN3C2=O)cc1 [C1-X33-L6]	89.9	95.4
COc1ccc(C[C@@H]2NC(=O)[C@@H](NC(=O)c3ccc(Cl)s3)CSCC(=O)CSCCNC(=O)C[C@H]3CCCN3C2=O)cc1 [C1-X33-L7]	97.9	101.4
O=C1C[C@H]2CCCN2C(=O)[C@H](Cc2ccc(Cl)cc2)NC(=O)[C@@H](NC(=O)c2ccc(Cl)s2)CSCc2cccc(n2)CSCCN1 [C1-X34-L1]	93.9	92.0
